Literature values as cited in patent publication US20100286186A1, “NOVEL DICARBOXYLIC ACID LINKED AMINO ACID AND PEPTIDE PRODRUGS OF OPIOIDS AND USES THEREOF” (Shire LLC, priority 2009, published 2010).

Details: in vivo; cited from earlier work

CC(C)[C@H](N)C(=O)OCCOCn1cnc2c(=O)nc(N)[nH]c21 [valine ester of acyclovir]
chemical degradation in the GI tract before absorption: 15-25%
